Values joined by “and” are separate entries in the source; they are usually repeats but may differ in a detail not shown here. Equal values may be shown once.
How the values were obtained:
Swiss mice = experiment: Acute toxicity in mice (maximum tolerated dose, IV bolus); assay type: in vivo, mouse; details: replicates 1-4
Method: Lipopeptide solutions were prepared in 0.9% saline and stored at 4 °C before use. Swiss mice (female, 7-week-old, 22–28 g) were used in the study. A mouse was administered an intravenous bolus of the lipopeptide (mg/kg free base) through a lateral tail vein (≤0.1 mL). After the injection, the mouse was released back into the cage and monitored for clinical signs of toxicity from 0 to 24 h after injection as follows: every 10 min in the first 2 h, every half hour from 2 to 4 h, every hour from 4 to 12 h, and every 2 h from 12 to 24 h.

P. aeruginosa ATCC 27853 = experiment: Neutropenic mouse bloodstream infection model; assay type: in vivo; details: single IV dose 4 mg/kg; for Δlog10 CFU/mL blood (mean): treated minus control, mean of replicates
Summary of the method: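 Female Swiss mice made neutropenic with cyclophosphamide (150 mg/kg day −4, 100 mg/kg day −1), infected IV with 50 µL of 4 × 10^8 CFU/mL. Lipopeptide 4 mg/kg (free base) IV at 2 h post-inoculation, n = 3. Efficacy = Δlog10 CFU/mL blood versus saline at 4 h post-dose.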

A. baumannii AB5075 = experiment: In vitro passaging, emergence of resistance; assay type: cell-based, Acinetobacter baumannii
Method: Log-phase cultures (OD600 = 0.5, ~10^8 CFU/mL) of A. baumannii AB5075 were inoculated (1:10, v/v) in 200 μL fresh CaMHB (cation-adjusted Mueller–Hinton broth) containing 2, 8 and 16 μg/mL polymyxin B, colistin, F287, and F365 in a 96-well microplate with 4 biological replicates. The cultures were incubated at 37 °C for 12 h before the next dilution (1:10, v/v) with fresh CaMHB. Successive subculturing was conducted for 7 days.

Substance: Polymyxin B [reference compound]
- MTD, single replicate (Swiss mice): 7 mg/kg and 5 mg/kg and 4.6 mg/kg
- Log10 CFU/mL blood at 4 h, Mean (P. aeruginosa ATCC 27853; 4 h): 4.76 Log10 CFU/mL blood
- Δlog10 CFU/mL blood (mean) (P. aeruginosa ATCC 27853; 4 h, 4 mg/kg): -2.69 log10 CFU/mL blood
- Δlog10 CFU/mL blood (mean) (P. aeruginosa ATCC 27853; 4 h, listed as PMB, 4 mg/kg): −2.69 log10 CFU/mL blood
- Log10 CFU/mL blood at 4 h, single mouse (P. aeruginosa ATCC 27853; 4 h, 4 mg/kg): 4.60 Log10 CFU/mL blood and 4.85 Log10 CFU/mL blood and 4.82 Log10 CFU/mL blood
- Delta Log10 CFU/mL blood at 4 h, single mouse (P. aeruginosa ATCC 27853; treated mouse minus mean of vehicle mice, 4 mg/kg): -2.84 Log10 CFU/mL blood and -2.60 Log10 CFU/mL blood and -2.63 Log10 CFU/mL blood
- regrowth observed from day (A. baumannii AB5075): 3 days
- OD600 (A. baumannii AB5075; 8 ug/mL, time 0 h, passage 0, replicates rep1-rep4, raw OD600 (blank OD600 0.125333)): 0.153 and 0.134 and 0.139 and 0.14
- OD600 (A. baumannii AB5075; 8 ug/mL, time 12 h, passage 1, replicates rep1-rep4, raw OD600 (blank OD600 0.114667)): 0.127 and 0.115 and 0.123 and 0.124
- OD600 (A. baumannii AB5075; 8 ug/mL, time 24 h, passage 2, replicates rep1-rep4, raw OD600 (blank OD600 0.0956667)): 0.086 and 0.093 and 0.096 and 0.083
- OD600 (A. baumannii AB5075; 8 ug/mL, time 36 h, passage 3, replicates rep1-rep4, raw OD600 (blank OD600 0.088)): 0.088 and 0.089 and 0.094 and 0.092
- OD600 (A. baumannii AB5075; 8 ug/mL, time 48 h, passage 4, replicates rep1-rep4, raw OD600 (blank OD600 0.104667)): 0.096 and 0.099 and 0.098 and 0.101
- OD600 (A. baumannii AB5075; 8 ug/mL, time 60 h, passage 5, replicates rep1-rep4, raw OD600 (blank OD600 0.122333)): 0.108 and 0.105 and 0.103 and 0.116
- OD600 (A. baumannii AB5075; 8 ug/mL, time 72 h, passage 6, replicates rep1-rep4, raw OD600 (blank OD600 0.095)): 0.092 and 0.093 and 0.083 and 0.091
- OD600 (A. baumannii AB5075; 8 ug/mL, time 84 h, passage 7, replicates rep1-rep4, raw OD600 (blank OD600 0.091)): 0.1 and 0.081 and 0.084 and 0.089
- OD600 (A. baumannii AB5075; 8 ug/mL, time 96 h, passage 8, replicates rep1-rep4, raw OD600 (blank OD600 0.0953333)): 0.192 and 0.105 and 0.119 and 0.106
- OD600 (A. baumannii AB5075; 8 ug/mL, time 108 h, passage 9, replicates rep1-rep4, raw OD600 (blank OD600 0.100667)): 0.179 and 0.108 and 0.11 and 0.118
- OD600 (A. baumannii AB5075; 8 ug/mL, time 120 h, passage 10, replicates rep1-rep4, raw OD600 (blank OD600 0.0983333)): 0.215 and 0.139 and 0.136 and 0.132
- OD600 (A. baumannii AB5075; 8 ug/mL, time 132 h, passage 11, replicates rep1-rep4, raw OD600 (blank OD600 0.0843333)): 0.198 and 0.19 and 0.197 and 0.21
- OD600 (A. baumannii AB5075; 8 ug/mL, time 144 h, passage 12, replicates rep1-rep4, raw OD600 (blank OD600 0.091)): 0.2 and 0.22 and 0.217 and 0.231
- OD600 (A. baumannii AB5075; 8 ug/mL, time 156 h, passage 13, replicates rep1-rep4, raw OD600 (blank OD600 0.129)): 0.176 and 0.181 and 0.195 and 0.201
- time to emergence of resistance (A. baumannii AB5075; 4× MIC, 7-day passaging): ≤ 3 days
- growth over 7 days (A. baumannii AB5075; 32× MIC): No growth
- OD600 (A. baumannii AB5075; in vitro passaging, concentration 8 ug/mL, time 168 h, passage 14, individual replicates rep1-rep4, not blank-subtracted (blank OD600 0.101)): 0.177 and 0.182 and 0.195 and 0.205

— publication PMC8956739, “A synthetic lipopeptide targeting top-priority multidrug-resistant Gram-negative pathogens” (Nature Communications, 2022)
